Legend:
[1] = target: T1, Bcl-XL/Bak-BH3 (Homo sapiens, UniProt Q07817); details: proof-of-concept study; cited from earlier work
[2] = target: T1, Bcl-XL/Bak-BH3; format: binding
[3] = GST-Bcl-XL, fluorescein-labeled Bak-BH3 peptide

T1 sequence (Q07817 whole entry): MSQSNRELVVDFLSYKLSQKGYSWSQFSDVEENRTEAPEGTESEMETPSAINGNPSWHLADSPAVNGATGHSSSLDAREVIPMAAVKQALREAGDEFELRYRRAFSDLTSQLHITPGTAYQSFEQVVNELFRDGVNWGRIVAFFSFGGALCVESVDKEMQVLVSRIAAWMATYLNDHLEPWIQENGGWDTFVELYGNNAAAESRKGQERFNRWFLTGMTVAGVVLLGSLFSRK

SMILES | IC50 inhibitory constants [1] | IC50 [2, 3] | Ki [2, 3] | Percentage Inhibition ([2]; acylsulfonamide at 50 μM concentration, Bcl-XL/Bak-BH3 PPI disruption)
CC1(C)CCN(c2ccc(C(=O)NS(=O)(=O)c3ccc(NCCSc4ccccc4)c([N+](=O)[O-])c3)cc2)CC1 [SZ4TA2] | nM range | 106 ± 12 nM | 0.0375 ± 0.005 µM | 100%
CC1(C)CCN(c2ccc(C(=O)NS(=O)(=O)c3ccc4ccc(S(=O)(=O)NCCSc5ccccc5)cc4c3)cc2)CC1 [SZ7TA2] | – | – | 11.5 ± 1.4 µM | –
[N-]=[N+]=NS(=O)(=O)c1ccc(CN(CCSc2ccccc2)Cc2ccc(S(=O)(=O)NC(=O)c3ccccc3)cc2)cc1 [SZ9TA1] | – | – | 11.6 ± 1.6 µM | –
COc1cc(OC)cc(C(=O)NS(=O)(=O)c2ccc(CN(CCSc3ccccc3)Cc3ccc(S(=O)(=O)N=[N+]=[N-])cc3)cc2)c1 [SZ9TA5] | – | – | 14.6 ± 1 µM | –

Source: PMC3151735 (ACS chemical biology, 2011)
